Literature values in patent publication US9469654B2, “Bicyclic oxa-lactam kinase inhibitors” (PORTOLA PHARMACEUTICALS, INC., priority 2012, dated 2016).

Key:
[1] = test system: JAK kinases
[2] = test system: Src kinsase
[3] = test system: lymphoma cell lines and primary human lymphoma samples
[4] = test system: refractory NHL and chronic lymphocytic leukemia; details: phase II clinical trial

SMILES: COc1cc(Nc2ncc(F)c(Nc3ccc4c(n3)NC(=O)C(C)(C)O4)n2)cc(OC)c1OC [Example R406]
- activity against JAK kinases [1]: active against
- activity against Src kinase [2]: not against
- apoptosis ([3]; lymphoma cell lines): resulting in apoptosis
- effect on BCR signaling ([3]; lymphoma cell lines and primary human lymphoma samples): attenuates BCR signaling
- clinical outcome [4]: favorable results
